# Patent US20050020519A1, “Modulation of insulin-regulated aminopeptidase (irap)/angiotensin iv (at4) receptor activity” (priority 2001, published 2005)
# Where no end group is shown, it is not given here.
# Experiments:
# IRAP (AT4 receptor) = molecular target: T1, IRAP (AT4 receptor) (Homo sapiens, UniProt Q9UIQ6); experiment: ^125I-Nle^1 Ang IV binding to membranes of HEK 293 cells transfected with IRAP cDNA; conditions: IRAP cDNA transfected cells
# T1 construct: expressed in transfected cells; host or cells: HEK 293 cells (membranes)
# Excerpt: The amount of radioligand bound to the membranes from HEK 293 cells transfected with IRAP cDNA was expressed as a percentage of radioligand bound to membranes from HEK 293 cells transfected with control plasmids.
# IRAP = molecular target: T2, IRAP (Homo sapiens, UniProt Q9UIQ6); experiment: IRAP enzymatic activity, hydrolysis of L-leucine-β-naphthylamide (fluorescence); assay type: biochemical
# T2 construct: expressed in transfected cells; host or cells: HEK 293T cells (solubilised membrane protein)
# Excerpt: For example, Hek293 cells stably transfected with a eukaryotic expression vector expressing the AT4 receptor gene may be utilized. An example of this is the vector pcDNA-3 containing the cDNA encoding the full length AT4 receptor. Two assay systems are used, one for each spliced variant of the human AT4 receptor gene. The assay system involves the measurement of the rate of hydrolysis of L-leucyl β-naphthylamide by the AT4 receptor. The rate of hydrolysis by the transfected cells is followed by recording the increase in fluorescence (excitation at 340 nm, emission at 410 nm) using a purpose-designed fluorimeter. Test compounds are added to the assay system, and their effects on the hydrolysis of L-leucyl β-naphthylamide are a direct indicator of their modulation of AT4 receptor activity.
# Crude membranes were prepared from HEK 293 cells stably transfected with pcDNA-3 containing the cDNA encoding the full length AT4 receptor/IRAP, using the same method as that described for bovine adrenal membranes. The membranes were solubilised in 50 mM Tris-HCl containing 1% Triton-X100 at 4° C. for 16 h. The IRAP enzymatic activity was determined by the hydrolysis of a synthetic substrate, L-leucine-β-naphthylamide, and monitored by the release of a fluorogenic product on a spectrophotometer set at excitation 340 nm and emission 410 nm. One hundred μM of the substrate was added to 10 μg of solubilised membranes, and the increase in fluorescence monitored for 10 min.
# Samples were assayed 2-3 times in triplicate, except controls, which were performed 5 times in triplicate.
# rats = experiment: Morris water maze, scopolamine-induced amnesia; assay type: in vivo, rat; conditions: 1 nmole icv after 70 nmole scopolamine
# Excerpt: The maze consisted of a circular tank, 1.6 m in diameter by 0.6 m in height, containing water to a depth of 30 cm. The room contained visual cues placed 40 cm from the edge of the tank. The rats were subjected to two days of familiarisation to the task, during which the escape pedestal is visible to the animals. During the acquisition phase, for the following 5 days, the water in the tank was rendered opaque, and the escape platform was submerged under the surface of the water. The animals had to rely on the visual cues around the room to find the submerged escape pedestal. The latency of the animal in finding the pedestal during the acquisition phase was taken as a measure of the spatial memory performance of the animal.
# Rats were surgically implanted with cannulae in their lateral ventricles and allowed two to three days of recovery. During the familiarisation trials on days 1 and 2, the animals were placed in the water facing the wall of the tank from different starting positions equidistant from the escape pedestal. When the animals located and mounted the pedestal, they were allowed 30 seconds on the pedestal before the commencement of the next trial. Four consecutive trials were carried out on each animal on each day, and the mean latency period before the animal reached the pedestal was plotted. […]
# rat hippocampal slices = experiment: Potassium-evoked ^3H-choline release from rat hippocampal slices; assay type: cell-based; conditions: at 10^−7M
# Description: To determine the effect of IRAP inhibitors an acetylcholine release for rat hippocampal slices in vitro, rats were anaesthetized with sodium pentobarbitone, decapitated and the brain rapidly extracted and put on ice. The two sides of the hippocampus were then dissected, and stored in Krebs buffer on ice. The tissues were sectioned into 400 μm slices using a McI1wain slicer, and incubated with 10 μM of ^3H-choline in Krebs buffer for 20 min at 37° C. Following the incubation, the sections were transferred to Brandel superfusion chambers filled with carbogenated Krebs buffer, pH7.0 containing […] hemicholinium HC-3 to prevent choline reuptake. The slices were washed for 60 min at 37° C. with Krebs buffer at a flow rate of 500 μl/min. Superfusate samples were collected at 5 min intervals for the duration of the experiment. After a stable baseline was established, the hippocampal slices were depolarised by the addition of 30 mM KCl to the Krebs buffer and infused for 4 min (stimulation period S1). The tissue was then allowed to recover for 25 min before the next stimulation period (S2). To test the effect of […] […] Fractional ^3H-choline release, expressed as a ratio of S2/S1, was then calculated for each of the different peptides at the different doses.
# SK-N-MC cells = experiment: [^3H]-thymidine uptake in SK-N-MC cells; assay type: cell-based; conditions: Ang IV 10^−10-10^−7 M; LVVYPWTQRF 10^−10-10^−6 M
# Description: NG108-15 and SK-N-MC cells were cultured in DMEM supplemented with 10% heat-inactivated FCS, 2% HAT supplement, and 100 U/ml penicillin/streptomycin. Cells were routinely used between passages 20 and 30.
# Cells were plated at a density of 3×10^4 cells/well in 24 well Falcon plates that had been coated with 0.1 mg/ml poly-L-lysine hydrobromide. The cells were allowed to adhere overnight, and then serum deprived for 48 h before being treated with […] (SEQ ID NO:2) and/or Ang IV (10^−10 to 10^−6 M) for 24 h in medium with or without serum. Five hours before the end of the experiment 1 μCi of ^3H-thymidine was added to each well. At the completion of the incubation, cells were washed twice with 1 ml of PBS at 4° C., followed by 5% trichloroacetic acid at 4° C. for 30 min, which was aspirated before solubilizing the cells in 1 ml 0.25 M NaOH and 0.1% SDS for 30 min at 37° C. Samples were then collected into 5 ml of Ready Value scintillation fluid and ^3H measured in a liquid scintillation counter.
# T2 sequence (Q9UIQ6 whole entry): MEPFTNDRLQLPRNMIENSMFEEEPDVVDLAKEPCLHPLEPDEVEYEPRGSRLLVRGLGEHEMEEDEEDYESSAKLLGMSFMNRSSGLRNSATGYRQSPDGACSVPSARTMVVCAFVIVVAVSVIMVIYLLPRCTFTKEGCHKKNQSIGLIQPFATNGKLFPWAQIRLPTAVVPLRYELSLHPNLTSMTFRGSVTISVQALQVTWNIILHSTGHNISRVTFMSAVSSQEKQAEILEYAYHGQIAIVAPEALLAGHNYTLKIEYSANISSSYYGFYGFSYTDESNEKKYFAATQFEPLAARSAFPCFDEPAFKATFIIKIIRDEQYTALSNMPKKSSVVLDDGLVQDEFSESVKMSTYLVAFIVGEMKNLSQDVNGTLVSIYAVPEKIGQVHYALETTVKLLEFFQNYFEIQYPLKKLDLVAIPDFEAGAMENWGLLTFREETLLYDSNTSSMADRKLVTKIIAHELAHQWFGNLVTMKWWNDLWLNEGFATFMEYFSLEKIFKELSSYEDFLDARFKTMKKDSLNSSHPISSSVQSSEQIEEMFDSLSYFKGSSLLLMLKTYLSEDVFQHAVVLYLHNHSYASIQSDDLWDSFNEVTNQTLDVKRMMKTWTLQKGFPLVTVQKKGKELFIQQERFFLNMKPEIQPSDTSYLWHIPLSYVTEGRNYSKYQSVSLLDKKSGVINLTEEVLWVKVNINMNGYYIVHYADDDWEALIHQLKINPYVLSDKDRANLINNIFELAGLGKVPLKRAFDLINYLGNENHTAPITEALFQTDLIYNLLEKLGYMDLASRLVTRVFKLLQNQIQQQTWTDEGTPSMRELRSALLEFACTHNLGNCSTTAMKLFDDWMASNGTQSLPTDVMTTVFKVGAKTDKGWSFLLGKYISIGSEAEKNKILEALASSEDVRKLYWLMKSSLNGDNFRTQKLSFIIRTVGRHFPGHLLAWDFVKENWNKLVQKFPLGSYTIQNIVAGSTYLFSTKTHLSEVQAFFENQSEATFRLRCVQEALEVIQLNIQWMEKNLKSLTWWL
# T1 sequence (Q9UIQ6 whole entry): as above
sequence,measurement,setting,value
LVVYPWTQRF,binding of ^125I-Nle^1 angiotensin IV to IRAP sites inhibited by ligand,IRAP (AT4 receptor),competitively inhibited
same,Ki,IRAP,845 nM
same,hydrolysis of L-leucine-β-naphthylamide by membranes containing IRAP,IRAP; 10 mM peptide,totally abolished
same,type of inhibition of IRAP,IRAP; Lineweaver-Burk analysis,competitive inhibitors
same,latency in locating the submerged pedestal,rats,reversed the scopolamine-induced latency
same,maximum effect on potassium-evoked ^3H-choline release,rat hippocampal slices,180 % of control
same,increase of [^3H]-thymidine uptake,SK-N-MC cells,up to 81 % above control levels
